In the NIST ThermoML archive (doi:10.1021/je4000394):

Legend:
[1] = xn = mol fraction of the nth substance listed; conditions: Liquid; for mass density: Vibrating tube method; for viscosity: 325.2 K, Flow viscometer
[2] = Liquid, Vibrating tube method

CCCCCCCCCCCCCCCCCC [octadecane] + CCCCCCCCCC
mass density [kg/m3], [1]
Conditions	x2 = 0	x2 = 0.25	x2 = 0.5	x2 = 0.75
323 K, 100 kPa	761.2	–	–	726.3
323 K, 1000 kPa	761.9	–	–	727.1
323 K, 2000 kPa	762.7	–	–	728
323 K, 3000 kPa	763.3	–	–	728.8
323 K, 4000 kPa	764	–	–	729.6
323 K, 5000 kPa	764.8	–	–	730.4
323 K, 6000 kPa	765.4	–	–	731.2
323 K, 7000 kPa	766	–	–	732.1
323 K, 8000 kPa	766.7	–	–	732.9
323 K, 9000 kPa	767.5	–	–	733.7
323 K, 10000 kPa	768.1	–	–	734.5
323.1 K, 100 kPa	–	752.2	740.8	–
323.1 K, 1000 kPa	–	752.9	741.6	–
323.1 K, 2000 kPa	–	753.7	742.4	–
323.1 K, 3000 kPa	–	754.5	743.1	–
323.1 K, 4000 kPa	–	755.2	743.9	–
323.1 K, 5000 kPa	–	755.9	744.7	–
323.1 K, 6000 kPa	–	756.7	745.5	–
323.1 K, 7000 kPa	–	757.3	746.2	–
323.1 K, 8000 kPa	–	758.1	747	–
323.1 K, 9000 kPa	–	758.8	747.8	–
323.1 K, 10000 kPa	–	759.6	748.6	–

[1], 100 kPa
Conditions	viscosity [mPa·s]
x1 = 0.25	0.883
x1 = 0.5	1.31
x1 = 0.75	1.702

CCCCCCCCCCCCCCCCCC [octadecane]
[2], 323 K
Conditions	mass density [kg/m3]
100 kPa	761.2
1000 kPa	761.9
2000 kPa	762.7
3000 kPa	763.3
4000 kPa	764
5000 kPa	764.8
6000 kPa	765.4
7000 kPa	766
8000 kPa	766.7
9000 kPa	767.5
10000 kPa	768.1

CCCCCCCCCC [decane] + CCCCCCCCCCCCCCCCCC
[1], 323.2 K, x1 = 1
Conditions	mass density [kg/m3]
100 kPa	707
1000 kPa	707.9
2000 kPa	708.8
3000 kPa	709.7
4000 kPa	710.6
5000 kPa	711.5
6000 kPa	712.4
7000 kPa	713.3
8000 kPa	714.1
9000 kPa	715
10000 kPa	715.9

CCCCCCCCCC [decane]
[2], 323.2 K
Conditions	mass density [kg/m3]
100 kPa	707
1000 kPa	707.9
2000 kPa	708.8
3000 kPa	709.7
4000 kPa	710.6
5000 kPa	711.5
6000 kPa	712.4
7000 kPa	713.3
8000 kPa	714.1
9000 kPa	715
10000 kPa	715.9
